Each structure is given as a SMILES string. Like-named read-outs stand apart in the source and are kept apart here.

The text below walks through data of patent US5658935A, “Heterocycles, their preparation and their use” (Hoechst Aktiengesellschaft, priority 1993, dated 1997).

Experiment [1] concerns gel-filtered human platelets. As to the kind of experiment: Inhibition of the aggregation of gel-filtered human platelets after ADP or thrombin stimulation. The class given is cell-based. Conditions: Platelet. As to the method: (§1) The compounds are tested in particular for their inhibitory effect on blood platelet aggregation and the adhesion of fibrinogen to blood platelets. Gel-filtered blood platelets from human donor blood are used, which are activated with ADP or thrombin.
As a functional test, the inhibition of the aggregation of gel-filtered human platelets is measured after ADP or thrombin stimulation by the compounds according to the invention. The IC50 value of the inhibition is indicated (reference: G. A. Marguerie et al., J. Biol. Chem. 254 (1979), 5357-5363).
(§2) On testing of the inhibition of fibrinogen binding and the inhibition of aggregation, the following results are obtained for the compounds of the examples which follow: […]

Experiment [2] concerns the target T1, fibrinogen receptor (glycoprotein IIb/IIIa) (Homo sapiens, UniProt P05106+P08514).
T1 construct: on intact, gel-filtered human platelets; from tissue; host or cells: gel-filtered blood platelets from human donor blood
As to the kind of experiment: Inhibition of the binding of 125I-fibrinogen to its receptor (glycoprotein IIb/IIIa) on intact, gel-filtered human platelets. Conditions: after stimulation with ADP (10 μM). As to the method:
as §1
The inhibition of the binding of fibrinogen to its receptor (glycoprotein IIb/IIIa) on intact, gel-filtered human platelets by the compounds according to the invention is tested. The Ki value of the inhibition of binding of […] after stimulation with ADP (10 μM) is indicated. (Reference: J. S. Bennett and G. Vilaire, J. Clin. Invest. 64 (1979) 1393-1401; E. Kornecki et al., J. Biol. Chem. 256 (1981), 5695-5701; G. A. Marguerie et al., J. Biol. Chem. 254 (1979) 5357-5363; G. A. Marguerie et al., J. Biol. Chem. 255 (1980) 154-161.)
as §2

Setting [3] is: ADP stimulation, read-out: Inhibition of platelet aggregation, ADP (IC50).
[4] abbreviates: thrombin stimulation, read-out: Inhibition of platelet aggregation, thrombin (IC50).

T1 sequence (P08514 32-887 limits assumed): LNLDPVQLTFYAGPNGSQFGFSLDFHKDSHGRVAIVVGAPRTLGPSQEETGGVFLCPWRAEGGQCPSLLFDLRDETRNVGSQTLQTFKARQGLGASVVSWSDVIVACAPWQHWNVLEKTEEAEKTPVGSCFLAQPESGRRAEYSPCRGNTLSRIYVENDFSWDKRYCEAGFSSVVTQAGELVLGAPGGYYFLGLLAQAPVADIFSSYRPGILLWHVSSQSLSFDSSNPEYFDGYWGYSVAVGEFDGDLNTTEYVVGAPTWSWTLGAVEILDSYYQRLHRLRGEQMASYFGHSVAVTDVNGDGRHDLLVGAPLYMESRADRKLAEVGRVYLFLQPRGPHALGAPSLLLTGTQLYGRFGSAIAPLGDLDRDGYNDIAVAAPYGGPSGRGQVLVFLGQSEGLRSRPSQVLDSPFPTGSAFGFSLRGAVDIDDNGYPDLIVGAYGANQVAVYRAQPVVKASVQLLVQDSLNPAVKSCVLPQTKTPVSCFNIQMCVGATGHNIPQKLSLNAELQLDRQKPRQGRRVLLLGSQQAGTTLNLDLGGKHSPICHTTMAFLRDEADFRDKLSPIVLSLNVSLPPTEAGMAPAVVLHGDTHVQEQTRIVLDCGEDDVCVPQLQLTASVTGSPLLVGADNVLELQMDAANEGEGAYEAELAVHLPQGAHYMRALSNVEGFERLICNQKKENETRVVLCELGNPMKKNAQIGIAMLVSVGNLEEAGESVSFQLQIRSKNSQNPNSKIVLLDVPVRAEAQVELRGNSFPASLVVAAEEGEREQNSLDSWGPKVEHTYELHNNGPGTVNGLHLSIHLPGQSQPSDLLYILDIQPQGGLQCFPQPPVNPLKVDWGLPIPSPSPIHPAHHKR
T1 sequence (P08514 891-1039 limits assumed): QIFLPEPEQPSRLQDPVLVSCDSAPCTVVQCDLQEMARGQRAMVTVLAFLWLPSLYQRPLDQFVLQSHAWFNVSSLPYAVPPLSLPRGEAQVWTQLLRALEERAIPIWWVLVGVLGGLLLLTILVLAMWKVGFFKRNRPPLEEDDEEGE
T1 sequence (P05106 27-788): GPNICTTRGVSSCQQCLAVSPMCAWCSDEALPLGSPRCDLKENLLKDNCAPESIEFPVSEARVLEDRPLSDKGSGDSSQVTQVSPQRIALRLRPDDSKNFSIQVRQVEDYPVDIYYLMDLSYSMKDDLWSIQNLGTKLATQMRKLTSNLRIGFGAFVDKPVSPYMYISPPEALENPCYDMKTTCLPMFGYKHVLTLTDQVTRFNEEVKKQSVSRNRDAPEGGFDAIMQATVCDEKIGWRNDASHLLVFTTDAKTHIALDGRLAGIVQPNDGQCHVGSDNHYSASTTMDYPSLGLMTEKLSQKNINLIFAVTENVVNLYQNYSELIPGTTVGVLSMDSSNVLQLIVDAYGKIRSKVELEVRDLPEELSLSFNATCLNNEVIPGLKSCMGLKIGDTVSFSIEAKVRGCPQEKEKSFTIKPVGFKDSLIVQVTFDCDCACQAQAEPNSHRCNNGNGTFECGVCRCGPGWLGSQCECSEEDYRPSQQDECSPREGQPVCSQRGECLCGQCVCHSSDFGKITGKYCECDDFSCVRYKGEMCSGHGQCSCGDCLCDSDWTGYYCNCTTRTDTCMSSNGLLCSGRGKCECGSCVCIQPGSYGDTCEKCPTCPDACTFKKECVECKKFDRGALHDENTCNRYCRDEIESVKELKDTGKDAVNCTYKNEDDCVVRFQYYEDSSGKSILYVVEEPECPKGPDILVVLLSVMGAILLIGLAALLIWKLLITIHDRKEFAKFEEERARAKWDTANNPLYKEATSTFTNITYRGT

On to `COC(=O)C(CCc1ccccc1)NC(=O)CN1C(=O)CC(Cc2ccc(C(=N)N)cc2)C1=O` (racemic) [Example 13, {3-[4-(Aminoiminomethyl)benzyl]-2,5-dioxopyrrolidin-1-yl}acetyl-D,L-homophenylalanine methyl ester], for which the IC50 in experiment [1] (setting [3]) and in experiment [1] (setting [4]) was 100 µM in each case.
Take `COC(=O)CC(NC(=O)CN1C(=O)CC(Cc2ccc(C(=N)N)cc2)C1=O)c1cccc(O)c1` (racemic) [Example 15, Methyl 3-(R,S)-3-<{3-[4-(aminoiminomethyl)benzyl]-2,5-dioxopyrrolidin-1-yl}acetamido>-3-(3-hydroxyphenyl)propionate]: the IC50 in experiment [1] (setting [3]) and in experiment [1] (setting [4]) was 200 µM in each case.
As for `N=C(N)c1ccc(CC2CC(=O)N(CC(=O)NC(CC(=O)O)c3cccc(O)c3)C2=O)cc1` (racemic) [Example 16, 3-(R,S)-3-<{3-[4-(Aminoiminomethyl)benzyl]-2,5-dioxopyrrolidin-1-yl}acetamido>-3-(3-hydroxyphenyl)propionate], the IC50 in experiment [1] (setting [3]) turned out to be 20 µM; in experiment [1] (setting [4]), 9 µM.
With `N=C(N)c1ccc(CC2CC(=O)N(CC(=O)NC(CCc3ccccc3)C(=O)O)C2=O)cc1` (racemic) [Example 17, {3-[4-(Aminoiminomethyl)benzyl]-2,5-dioxopyrrolidin-1-yl}acetyl-D,L-homophenylalanine], the IC50 in experiment [1] (setting [3]) and in experiment [1] (setting [4]) was 100 µM each time.
In experiment [2], `N=C(N)c1ccc(CC2CC(=O)N(CC(=O)N[C@@H](CC(=O)O)C(=O)N[C@H](C(=O)O)c3ccccc3)C2=O)cc1` (stereo partly drawn) [Example 1, {3-[4-(Aminoiminomethyl)benzyl]-2,5-dioxopyrrolidin-1-yl}acetyl-L-aspartyl-L-phenylglycine] displayed a Ki of 0.043 µM. In addition, the values for the IC50 in experiment [1] (setting [3]) and in experiment [1] (setting [4]) were 0.2 µM and 0.09 µM, respectively.
In the case of `COC(=O)[C@H](Cc1c[nH]c2ccccc12)NC(=O)CN1C(=O)CC(Cc2ccc(C(=N)N)cc2)C1=O` (stereo partly drawn) [Example 12, {3-[4-(Aminoiminomethyl)benzyl]-2,5-dioxopyrrolidin-1-yl}acetyl-L-tryptophan methyl ester], the IC50 in experiment [1] (setting [3]) is 100 µM; in experiment [1] (setting [4]) it was 80 µM.
In the case of `CC(C)OC(=O)C[C@H](NC(=O)CN1C(=O)CC(Cc2ccc(C(=N)N)cc2)C1=O)C(=O)N[C@H](C(=O)OC(C)C)c1ccccc1` (stereo partly drawn) [Example 14, {3-[4-(Aminoiminomethyl)benzyl]-2,5-dioxopyrrolidin-1-yl}acetyl-L-(β-isopropyl)aspartyl-L-phenylglycine isopropyl ester], the IC50 in experiment [1] (setting [3]) came out at 20 µM; in experiment [1] (setting [4]) it was 35 µM.
`N=C(N)c1ccc(CC2CC(=O)N(CC(=O)N[C@@H](Cc3c[nH]c4ccccc34)C(=O)O)C2=O)cc1` (stereo partly drawn) [Example 18, {3-[4-(Aminoiminomethyl)benzyl]-2,5-dioxopyrrolidin-1-yl}acetyl-L-tryptophan]: the IC50 in experiment [1] (setting [3]) was determined as 100 µM; in experiment [1] (setting [4]), 70 µM.
In the same order, the values of `O=C(O)C[C@H](NC(=O)CN1C(=O)CC(CC2CCNCC2)C1=O)C(=O)N[C@H](C(=O)O)c1ccccc1` (stereo partly shown) [Example 19] are 4 µM and 1 µM.

A word on the IC50: it is the concentration that inhibits the measured activity by half. The Ki is the equilibrium dissociation constant of an inhibitor or competing ligand from its target. Low readings indicate a stronger hold on the target, high ones a looser hold on the target.
